# Key:
# [1] = system: mouse lymphoma cell line L5178Y; assay: Growth inhibition of mouse lymphoma cells (L5178Y), 48 h; type: cell-based; conditions: 48 hours; for inhibition at 20 µM: 20 micromolar; for inhibition at 50 µM: 50 micromolar; for inhibition at 2 µM: 2 micromolar; for inhibition at 4 µM: 4 micromolar; for inhibition at 10 µM: 10 micromolar, read-out: Inhibition of growth
# Description: Effects of compounds on growth of mouse lymphoma cell line L5178Y, were determined as follows. Cells were grown in Fischer's medium (obtained from Life Technologies, Inc., Gaithersburg, Md.) containing 0.24 grams per liter (g/l) sodium pyruvate, 1.12 g/l surfactant (Pluronic F-68, from BASF Corporation, Parsippany, N.J.), and 10% by volume (10% v/v) heat-inactivated horse serum (obtained from Life Technologies, Inc) at 37° C. To 30 ml aliquots of cell suspension (2×10^4 cells per milliliter (mL)) in exponential growth phase were added test compounds dissolved in dimethylsulfoxide (DMSO) at various concentrations such that the final DMSO concentration in the mixtures was 0.25%. Tubes were gassed with 5% CO2 then incubated on a roller drum apparatus. After 48 hours the cells were treated with 0.1% trypsin (Life Technologies, Inc.,) for 10 minutes and counted in a Coulter Counter equipped with a 140 micrometer (μM) aperture. Percent inhibition of growth was calculated by comparing the number of cells in assays containing test compound with the number of cells in controls lacking the test compound.
# tubulin = assay: Inhibition of microtubule assembly; type: biochemical, calf; conditions: preincubated 1 h at 37° C.
# Description: Compounds were evaluated for their ability to inhibit tubulin assembly into microtubules by comparing the extent of cold-reversible assembly in the presence of each test compound with controls lacking the test compound. Tubulin was isolated from calf brain tissue by two cycles of assembly/disassembly as described by Vallee, R. B. in Methods in Enzymology, vol. 134, pp. 89-104. Assay mixtures contained 1 mg/ml of purified tubulin in 1 M sodium glutamate, pH 6.6, 1 millimolar (mM) MgCl2, and the test compound, which was added as a solution in DMSO. The final concentration of DMSO in each assay was 2% (v/v). Assay mixtures were preincubated at 37° C. for 1 h, then chilled on ice for 5 min. Microtubule assembly was initiated by addition of guanosine triphosphate (0.1 mM), and incubation at 37° C. Assembly was followed turbidimetrically at 350 nm for 20 minutes (min) using a temperature-controlled cell in a Cary 2200 spectrophotometer. Since microtubules undergo depolymerization at 0° C., assembly was confirmed by measuring the reduction in turbidity following incubation for 30 min at 0° C. The difference in absorbance before and after incubation for 30 min at 0° C. (ΔA350) represents the extent of microtubule assembly. Inhibition of assembly was calculated by subtracting the (ΔA350) values for treatments with test compounds from the (ΔA350) for controls without test compound, and expressing this difference as a percentage of the (ΔA350) value for the control. Results including test compound number, test compound concentration in micromoles per liter (μM) and percent inhibition are set forth in Table 11.
compound,measurement,setting,value
CCC(C)(NC(=O)c1cc(F)cc(F)c1)C(=O)CCl (stereo not drawn) [Compound 34],inhibition at 20 µM,[1],88%
CCC(C)(NC(=O)c1cccc(Cl)c1)C(=O)CCl (stereo not drawn) [Compound 35],inhibition at 20 µM,[1],95%
same,Percent inhibition of microtubule assembly,tubulin; 50 μM,17.9%
CCC(C)(NC(=O)c1ccccc1)C(=O)CCl (stereo not drawn) [Compound 36],inhibition at 50 µM,[1],91%
CCC(C)(NC(=O)c1cc(F)c(F)c(F)c1)C(=O)CCl (stereo not drawn) [Compound 37],inhibition at 50 µM,[1],96%
CC(C)C(C)(NC(=O)c1cc(Cl)cc(Cl)c1)C(=O)CCl (stereo not drawn) [Compound 38],inhibition at 50 µM,[1],66%
CC(C)(NC(=O)c1ccccc1)C(=O)CCl [Compound 39],inhibition at 50 µM,[1],96%
CC(C)(NC(=O)c1cc(Cl)cc(Cl)c1)C(=O)C(Cl)Cl [Compound 40],inhibition at 50 µM,[1],92%
CCC(C)(NC(=O)c1cc(Cl)cc(Br)c1)C(=O)C(Br)Br (stereo not drawn) [Compound 41],Percent inhibition of microtubule assembly,tubulin; 5 μM,76.0%
CC(C)(NC(=O)c1cc(Cl)nc(Cl)c1)C(=O)C(Br)Br [Compound 42],inhibition at 2 µM,[1],98%
CC(C)(NC(=O)c1cc(Cl)nc(Cl)c1)C(=O)CCl [Compound 43],inhibition at 4 µM,[1],92%
CCC(C)(NC(=O)c1cccnc1)C(=O)CCl (stereo not drawn) [Compound 45],inhibition at 50 µM,[1],36%
CCC(C)(NC(=O)c1ccc(Cl)nc1)C(=O)CCl (stereo not drawn) [Compound 46],inhibition at 50 µM,[1],84%
CC(C)(NC(=O)c1cc(Br)c(Br)s1)C(=O)CCl [Compound 47],inhibition at 20 µM,[1],96%
CCC(C)(NC(=O)c1ccc(C)s1)C(=O)CCl (stereo not drawn) [Compound 48],inhibition at 50 µM,[1],97%
CC(C)(NC(=O)c1cccs1)C(=O)C(Br)Br [Compound 49],inhibition at 2 µM,[1],97%
CCC(C)(NC(=O)c1ccc(Br)o1)C(=O)C(Br)Br (stereo not drawn) [Compound 50],inhibition at 10 µM,[1],95%
CC(C)(NC(=O)c1cccs1)C(=O)CCl [Compound 51],inhibition at 50 µM,[1],95%
CC(C)(NC(=O)c1cc(Cl)sc1Cl)C(=O)CCl [Compound 52],inhibition at 20 µM,[1],89%
CCC(C)(NC(=O)c1ccc2ncoc2c1)C(=O)CCl (stereo not drawn) [Compound 53],inhibition at 50 µM,[1],95%
CCC(C)(NC(=O)c1ccc2ocnc2c1)C(=O)CCl (stereo not drawn) [Compound 54],inhibition at 50 µM,[1],36%
CCC(C)(NC(=O)c1ccc2ncsc2c1)C(=O)CCl (stereo not drawn) [Compound 55],inhibition at 10 µM,[1],97%
CCC(C)(NC(=O)c1cc(Cl)c2ncoc2c1)C(=O)CCl (stereo not drawn) [Compound 56],inhibition at 10 µM,[1],81%
CCC(C)(NC(=O)c1cc(Cl)c2nc(C)oc2c1)C(=O)CCl (stereo not drawn) [Compound 57],inhibition at 10 µM,[1],97%
CC(C)(NC(=O)C1CCCCC1)C(=O)CCl [Compound 58],inhibition at 50 µM,[1],77%
CC(C)(NC(=O)C(Cl)(Cl)Cl)C(=O)CCl [Compound 59],inhibition at 4 µM,[1],91%
CC(C)(NC(=O)C(Cl)(Cl)Cl)C(=O)C(Br)Br [Compound 60],inhibition at 2 µM,[1],98%
